Columns and labels:
[1] = system: immune-related genes; assay: NanoString immune profiling of whole blood from breast cancer patients given ganetespib; format: in vivo, human; details: 20-24 hours post intravenous drug administration, recommended Phase II dose
Description: Blood samples for gene expression analyses were obtained with informed consent from patients participating in an IRB-approved clinical trial coordinated by the Dana-Farber Cancer Institute, Boston, Mass. (DFCI 11-477, NCT01560416). All samples were processed and analyzed by collaborating investigators in an anonymous fashion to preserve patient confidentiality.
Gene expression measurements using Nanostring codesets were performed with NanoString XT GEx kits. Analyses were performed on total RNA from clinical samples or mouse tumor tissue following manufacturer's instructions. Briefly, 100 ng total RNA (measured by Qubit (Invitrogen)), was mixed with Capture and Reporter probe sets and hybridized for 16-20 hours at 65° C. prior to ramping down to hold at 4° C. Hybridized samples were processed on a Nanostring Prep Station according to manufacturer's instructions and then scanned with an FOV setting of 1100. All files (.rcc) were analyzed using nSolver v3.0 software.
As an approach to examine the impact of HSP90 compromise on the immune system in human cancer patients exposed to recommended dosing of an HSP90i, the RNA expression of immune-related genes in whole blood collected from 20 patients was profiled. […]

[2] = system: human peripheral blood mononuclear cells; assay: RNA sequencing of ex vivo human peripheral blood mononuclear cells; format: cell-based; details: 500 nM for 20 hrs
Description: Whole blood was collected into lithium-heparin tubes and processed with Histopaque-1077 (Sigma) to isolate peripheral blood mononuclear cells per supplier's instructions. After overnight culture in RPMI160 with 20% autologous plasma, ganetespib (500 nM) or an equal volume of solvent vehicle (DMSO 0.1% v/v) was added to duplicate dishes. Incubation was continued for 24 hours after which cells were collected by centrifugation, lysed in RLT buffer (Qiagen) and total RNA isolated using an RNeasy kit per manufacturer's instructions (Qiagen). Sequencing library preparation was performed by the Whitehead Genome Technology Core using standard Illumina protocols and TruSeq adapters. Single-end, 40 bp sequencing was performed on a HiSeq 2000 instrument. Adapter sequences were trimmed, and reads were aligned to […] using TopHat2 and rpkm values generated with Cufflinks. Differential expression analysis was performed with the Bioconductor package DEseq.
To evaluate the immunosuppressive effect of high level HSP90 inhibition in a more controlled fashion, freshly isolated human peripheral blood mononuclear cells were cultured in ganetespib (500 nM for 20 hrs.) and the effects on RNA expression genome-wide were measured (FIG. 2A).

[3] = cited from earlier work
[4] = phase I, intravenous infusion days 1, 8 and 15, 4-weekly schedule

CC(C)c1cc(-c2n[nH]c(=O)n2-c2ccc3c(ccn3C)c2)c(O)cc1O [Ganetespib]
expression of immune-related genes in whole blood [1]: broad down-regulation of expression across diverse immune-related genes
most downregulated Gene Ontology categories [2]: immune-related pathways
most upregulated Gene Ontology categories [2]: RNA splicing and protein folding
side effects / adverse effects ([3]; clinical use): diarrhea, fatigue, nausea, and anorexia
MTD as a combination therapy with crizotinib ([3]; days 1 and 8 of a 21-day cycle, phase II): 200 mg/m2
ocular toxicity ([3]; human, in vivo): No ocular toxicity has been reported
MTD as a monotherapy [3, 4]: 216 mg/m^2
highest dose with acceptable toxicity (RP2D) [3, 4]: 200 mg/m^2

Reference: US20190365719A1, “COMBINATION TREATMENTS OF HSP90 INHIBITORS FOR ENHANCING TUMOR IMMUNOGENICITY AND METHODS OF USE THEREOF” (Massachusetts Institute of Technology, priority 2018, published 2019)
